Read-outs that look alike come from different tables or passages of the source.
Columns and labels:
[1] = target: T1, P/Q-type channels (α1A+α2δ+β1b cDNA subunits) (Rattus norvegicus, UniProt P54282); assay: Whole cell patch clamp, P/Q-type calcium channel block in HEK 293 cells; format: cell-based; conditions: Tested at 0.1 Hz, 5 mM Ba2+
T1 construct: expressed in transfected cells
Method: (§1) Antagonist activity was measured using whole cell patch recordings on human embryonic kidney cells either stably or transiently expressing rat N-type channels (α1B+[…]+β1b subunits) with 5 mM barium as a charge carrier. Alternatively, cells either stably or transiently expressing rat L-type channels (α1C+α2δ+β1b cDNA subunits) and P/Q-type channels (α1A+α2δ+β1b cDNA subunits)
(§2) After an incubation period of from 24 to 72 hrs the culture medium was removed and replaced with external recording solution (see below). Whole cell patch clamp experiments were performed using an Axopatch 200B amplifier (Axon Instruments, Burlingame, Calif.) linked to an IBM compatible personal computer equipped with pCLAMP software. […] Current data shown were elicited by a train of 100 ms test pulses at 0.066 Hz from −100 mV and/or −80 mV to various potentials (min. −20 mV, max. +30 mV). Drugs were perfused directly into the vicinity of the cells using a microperfusion system.
(§3) Normalized dose-response curves were fit (Sigmaplot 4.0, SPSS Inc., Chicago, Ill.) by the Hill equation to determine IC50 values. […]
(§4) Whole cell patch clamp experiments were performed using an Axopatch 200B amplifier (Axon Instruments, Burlingame, Calif.) linked to a personal computer equipped with pCLAMP software. […] Data were analyzed using Clampfit (Axon Instruments) and SigmaPlot 4.0 (Jandel Scientific).

[2] = target: T2, human α1G subunits (T-type channels) (Homo sapiens, UniProt O43497); assay: Block of α1G T-type channels, patch clamp in HEK cell lines; format: cell-based
T2 construct: expressed in transfected cells
Method: Standard patch-clamp techniques were employed to identify blockers of T-type currents. Briefly, previously described HEK cell lines stably expressing human α1G subunits were used for all the recordings (passage #: 4-20, 37° C., 5% CO2). To obtain T-type currents, plastic dishes containing semi-confluent cells were positioned on the stage of a ZEISS AXIOVERT S100 microscope after replacing the culture medium with external solution (see below). Whole-cell patches were obtained using pipettes (borosilicate glass with filament, O.D.: 1.5 mm, I.D.: 0.86 mm, 10 cm length), fabricated on a SUTTER P-97 puller with resistance values of ˜5 MΩ (see below for internal medium).
Test compounds were dissolved in external solution, 0.1-0.01% DMSO. After ˜10 min rest, they were applied by gravity close to the cell using a WPI microfil tubing. The “non-inactivating” pre-pulse was used to examine the resting block of a compound. The “inactivating” protocol was employed to study voltage-dependent block. However, the initial data were obtained using the non-inactivating protocol.

[3] = target: T3, rat L-type channels (α1C+α2δ+β1b cDNA subunits) (Rattus norvegicus, UniProt P22002); assay: Whole cell patch clamp, L-type calcium channel block in HEK 293 cells; format: cell-based; conditions: Tested at 0.1 Hz, 5 mM Ba2+
T3 construct: expressed in transfected cells
Method: as §1, §2, §3, §4

[4] = target: T4, rat N-type channels (α1B+α2δ+β1b subunits) (Rattus norvegicus, UniProt Q02294); assay: Whole cell patch clamp, N-type calcium channel block in HEK 293 cells; format: cell-based; conditions: for specificity for N-type channels as compared to L and P/Q-type: FIGS. 2, 3 and 4
T4 construct: expressed in transfected cells
Method: as §1
HEK 293 cells were transfected by a standard calcium-phosphate-DNA coprecipitation method using the rat α1B+β1b+α2δ N-type calcium channel subunits in a vertebrate expression vector (for example, see Current Protocols in Molecular Biology).
as §2
Normalized dose-response curves were fit (Sigmaplot 4.0, SPSS Inc., Chicago, Ill.) by the Hill equation to determine IC50 values. Steady-state inactivation curves were plotted as the normalized test pulse amplitude following 5 s inactivating prepulses at +10 mV increments.
Alternatively, N-type calcium channels (α1B+α2δ+β1b cDNA subunits), L-type channels (α1C+α2δ+β1b cDNA subunits) and P/Q-type channels (α1A+α2δ+β1b cDNA subunits) were transiently expressed in HEK 293 cells. Briefly, cells were cultured in Dulbecco's modified eagle medium (DMEM) supplemented with 10% fetal bovine serum, 200 U/ml penicillin and 0.2 mg/ml streptomycin at 37° C. with 5% CO2. […] At 12 hours the medium was replaced and the cells transiently transfected using a standard calcium phosphate protocol and the appropriate calcium channel cDNAs. Fresh DMEM was supplied and the cells transferred to 28° C./5% CO2.
Whole cell patch clamp experiments were performed using an Axopatch 200B amplifier (Axon Instruments, Burlingame, Calif.) linked to a personal computer equipped with pCLAMP software. […] Currents were typically elicited from a holding potential of −80 mV to +10 mV using Clampex software (Axon Instruments). […] The compounds were then applied during the low frequency pulse trains for two to three minutes to assess tonic block, and subsequently the pulse frequency was increased to 0.2 Hz to assess frequency dependent block. Data were analyzed using Clampfit (Axon Instruments) and SigmaPlot 4.0 (Jandel Scientific).

[5] = target: T4, rat N-type channels (α1B+α2δ+β1b subunits); assay: as above; format: cell-based; conditions: Tested at 0.1 Hz, 5 mM Ba2+
rat formalin model = assay: Formalin-induced pain model; format: in vivo; conditions: 30 mg/kg IP, saline control=100%
Method: The effects of intrathecally delivered compounds of the invention on the rat formalin model were measured. The compounds were reconstituted to stock solutions of approximately 10 mg/ml in propylene glycol.
The following study groups were used, with test compound, vehicle control (propylene glycol) and saline delivered intraperitoneally (IP):
Prior to initiation of drug delivery baseline behavioral and testing data were taken.
On the morning of testing, a small metal band (0.5 g) was loosely placed around the right hind paw. The rat was placed in a cylindrical Plexiglas chamber for adaptation a minimum of 30 minutes. Test compound or vehicle control was administered 10 minutes prior to formalin injection (50 μl of 5% formalin) into the dorsal surface of the right hindpaw of the rat. The animal was then placed into the chamber of the automated formalin apparatus where movement of the formalin injected paw was monitored and the number of paw flinches tallied by minute over the next 60 minutes.

[6] = 80 mV, read-out: Block of α1G T-type Channels IC50, 80 mV
[7] = 100 mV, non-inactivating protocol, read-out: Block of α1G T-type Channels IC50, 100 mV
[8] = 0.067 Hz, read-out: IC50 for N-type Calcium Channel Block (0.067 Hz)
[9] = 0.2 Hz, read-out: IC50 for N-type Calcium Channel Block (0.2 Hz)

T2 sequence (O43497 whole entry): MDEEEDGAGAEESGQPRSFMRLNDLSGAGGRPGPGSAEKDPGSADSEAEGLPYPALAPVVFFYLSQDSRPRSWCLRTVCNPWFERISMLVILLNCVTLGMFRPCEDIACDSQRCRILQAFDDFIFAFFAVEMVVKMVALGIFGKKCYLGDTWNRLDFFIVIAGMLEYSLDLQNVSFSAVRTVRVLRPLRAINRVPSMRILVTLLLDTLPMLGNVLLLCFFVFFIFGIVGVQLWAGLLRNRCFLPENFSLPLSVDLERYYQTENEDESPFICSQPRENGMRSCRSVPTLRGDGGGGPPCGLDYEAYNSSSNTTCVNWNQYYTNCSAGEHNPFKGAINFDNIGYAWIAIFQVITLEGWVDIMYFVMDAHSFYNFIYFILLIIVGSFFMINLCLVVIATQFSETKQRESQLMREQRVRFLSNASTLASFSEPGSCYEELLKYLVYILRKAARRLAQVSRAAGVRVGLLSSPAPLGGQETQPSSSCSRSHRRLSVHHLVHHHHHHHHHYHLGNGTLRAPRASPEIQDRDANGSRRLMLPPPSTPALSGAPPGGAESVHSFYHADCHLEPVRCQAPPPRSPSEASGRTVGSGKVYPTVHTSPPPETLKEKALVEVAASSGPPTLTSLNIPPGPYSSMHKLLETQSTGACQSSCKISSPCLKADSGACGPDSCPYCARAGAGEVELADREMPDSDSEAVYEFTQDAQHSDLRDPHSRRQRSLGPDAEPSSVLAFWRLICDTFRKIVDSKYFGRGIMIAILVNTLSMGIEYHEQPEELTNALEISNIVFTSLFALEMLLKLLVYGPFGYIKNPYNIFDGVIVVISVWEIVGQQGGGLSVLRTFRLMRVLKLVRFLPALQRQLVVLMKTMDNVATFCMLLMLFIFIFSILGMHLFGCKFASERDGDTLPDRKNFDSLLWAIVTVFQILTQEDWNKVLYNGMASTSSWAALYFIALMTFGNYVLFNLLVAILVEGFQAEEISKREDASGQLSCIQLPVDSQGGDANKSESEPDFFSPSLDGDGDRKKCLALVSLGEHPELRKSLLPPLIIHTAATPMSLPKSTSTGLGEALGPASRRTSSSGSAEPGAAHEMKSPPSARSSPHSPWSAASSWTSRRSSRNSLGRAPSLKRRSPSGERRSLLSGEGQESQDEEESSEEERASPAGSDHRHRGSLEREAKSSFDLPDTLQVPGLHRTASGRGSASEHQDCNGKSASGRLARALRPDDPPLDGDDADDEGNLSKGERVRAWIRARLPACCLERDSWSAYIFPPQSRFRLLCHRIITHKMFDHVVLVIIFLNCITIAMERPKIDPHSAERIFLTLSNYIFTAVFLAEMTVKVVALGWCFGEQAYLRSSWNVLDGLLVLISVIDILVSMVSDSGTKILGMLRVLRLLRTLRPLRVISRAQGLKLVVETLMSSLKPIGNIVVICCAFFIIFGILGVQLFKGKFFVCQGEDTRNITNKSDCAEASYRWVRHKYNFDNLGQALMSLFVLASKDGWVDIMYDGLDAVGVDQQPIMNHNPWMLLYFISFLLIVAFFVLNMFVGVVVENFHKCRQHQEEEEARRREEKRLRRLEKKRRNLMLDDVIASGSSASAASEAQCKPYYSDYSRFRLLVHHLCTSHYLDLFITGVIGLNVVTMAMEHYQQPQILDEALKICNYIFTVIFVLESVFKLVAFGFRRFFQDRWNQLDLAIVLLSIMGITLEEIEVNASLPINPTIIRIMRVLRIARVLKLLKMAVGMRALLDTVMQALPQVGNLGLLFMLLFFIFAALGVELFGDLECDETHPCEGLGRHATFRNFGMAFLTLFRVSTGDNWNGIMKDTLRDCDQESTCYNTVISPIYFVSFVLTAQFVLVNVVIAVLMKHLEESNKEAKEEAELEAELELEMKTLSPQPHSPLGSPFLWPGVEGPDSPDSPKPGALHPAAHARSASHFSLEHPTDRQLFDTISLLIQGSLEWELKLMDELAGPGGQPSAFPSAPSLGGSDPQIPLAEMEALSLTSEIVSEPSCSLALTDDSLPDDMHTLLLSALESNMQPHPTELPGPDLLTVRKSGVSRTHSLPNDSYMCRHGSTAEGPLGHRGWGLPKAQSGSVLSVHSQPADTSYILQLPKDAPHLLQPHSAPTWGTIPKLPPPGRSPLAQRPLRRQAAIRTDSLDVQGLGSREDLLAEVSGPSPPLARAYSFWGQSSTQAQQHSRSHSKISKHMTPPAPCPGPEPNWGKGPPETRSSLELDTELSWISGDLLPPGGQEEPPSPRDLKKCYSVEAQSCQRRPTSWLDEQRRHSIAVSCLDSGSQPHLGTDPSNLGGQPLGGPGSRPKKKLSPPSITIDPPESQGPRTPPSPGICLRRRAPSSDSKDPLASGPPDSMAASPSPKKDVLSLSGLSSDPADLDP

Row | SMILES | IC50 [1] [µM] | IC50 [2, 6] [µM] | IC50 [2, 7] [µM] | IC50 [3] [µM] | IC50 [4, 8] [µM] | IC50 [4, 9] [µM] | specificity for N-type channels as compared to L and P/Q-type [4] | IC50 [5] [µM] | Maximum Possible Effect±SEM, Phase I (rat formalin model; Phase I) [%] | Maximum Possible Effect±SEM, Phase II (rat formalin model; Phase II) [%] | Maximum Possible Effect±SEM, Phase IIA (rat formalin model; Phase IIA) [%]
1 | CCOC(=O)C1CN(Cc2cc(OC)c(OC)c(OC)c2)CCN1CCCCCC(c1ccc(F)cc1)c1ccc(F)cc1 (stereo not shown) [Compound P36, 1-[6,6-bis-(4-fluoro-phenyl)-hexyl]-4-(3,4,5,-trimethoxy-benzyl)-piperazine-2-carboxylic acid ethyl ester] | 0.92 | 0.047 | 0.202 | > 100 | 0.24 | 0.13 | selectively block N-type channels | 0.136 |  |  | 
2 | COc1c(C(C)(C)C)cc(C(=O)N2CCN(C(=O)CCCCC(c3ccc(F)cc3)c3ccc(F)cc3)C[C@@H]2C)cc1C(C)(C)C [Compound P104] | 1.66 | 0.27 | 0.579 | 144 | 0.06 | 0.013 | selectively block N-type channels | 0.061 | 79 ± 9 | 61 ± 9 | 50 ± 12

— patent publication US20040266784A1, “Calcium channel inhibitors comprising benzhydril spaced from piperazine” (priority 1998, published 2004)
